Values after ≈ are worked out from the molar mass of the structure shown.
Tests used:
Type in all cases: cell-based
[1] = tested on: neutrophilic granulocytes; experiment: Neutrophil oxidative burst (luminol chemiluminescence); conditions: Neutrophil, rat neutrophils, (Csample−Ccontrol)/Ccontrol×100%, read-out: Efficiency of compounds in stimulating neutrophil oxidative burst; for activation at 3 µg/mL: 3 μg/mL
Procedure: This example investigated the effect of compound on neutrophil oxidative burst and calculated the efficiency of each compound in stimulating neutrophil oxidative burst.
Blood was taken from the abdominal aorta of rat. The neutrophilic granulocytes were isolated by the operational procedure of the rat peripheral blood neutrophil isolation kit. The neutrophilic granulocytes were re-suspended by Hanks, and were plated in a 96-well white plate at 1×10^5 cells/well, 80 μL/well; 1 mM of Luminol was added at 10 μL/well; 10 μL of the sample was added to each well, and the degree of oxidative burst was evaluated by chemiluminescence. Calculation formula of Efficiency: Efficiency (%)=(Csample−Ccontrol)/Ccontrol×100%

[2] = tested on: release of IL-8 by human keratinocytes (HaCaT); experiment: Release of IL-8 by human keratinocytes (HaCaT), IL-8 Elisa; conditions: Homo sapiens, HaCaT, 24 h, (Csample−Ccontrol)/Ccontrol×100%, read-out: Efficiency of compound in stimulating the release of IL-8 by HaCaT cells; for activation at 1 µg/mL: 1 μg/mL
Procedure: This Example investigated the effect of compound on release of IL-8 by human keratinocytes (HaCaT) and calculated the efficiency of each compound in stimulating the release of IL-8 by human keratinocytes (HaCaT).
Hacat cells were cultured in MEM+10% FBS under the conditions of 37° C., 5% CO2, and when the cells reached 80-95% fusion, they were inoculated into a 96-well culture plate (1×10^4 cells/well) at 100 μL/well, and incubated for 18-24 h. The supernatant was discarded and the cells were incubated for 3-6 h in 1% FBS medium. Different concentrations of the sample solution of compound to be tested were added to each well, and the cell control group was added with an equal volume of 1% FBS medium at 10 μL/well, and incubated for 24 h. The supernatant was taken and tested according to the operation sequence of the IL-8 Elisa kit. Calculation formula of Efficiency: Efficiency (%)=(Csample−Ccontrol)/Ccontrol×100%

[3] = tested on: A549 (human lung cancer cells); experiment: Inhibition of proliferation of tumor cell lines (MTT), A549; conditions: Homo sapiens, A549, 72 h, read-out: IC50 value of compound for inhibition of proliferation of tumor cell lines, A549
Procedure: (§1) In this example, the inhibitory activity of compounds of the present invention against proliferation of seven human tumor cell lines and mouse B16-F10 melanoma cells was tested in vitro, and the IC50 value (50% inhibitory concentration) of compounds against each tumor cell line was calculated.
(§2) The seven human tumor cell lines are: MCF-7 (human breast cancer cells), LOVO (human colon cancer cells), A549 (human lung cancer cells), BGC-823 (human gastric cancer cells), SMMC-7721 (human liver cancer cells), K562 (human leukemia cells), and HeLa (human cervical cancer cells).
(§3) IC50 values of the compounds for A549, BGC-823, LOVO, MCF-7, SMMC-7721, HeLa, and B16-F10 cells were tested. The above cells were routinely cultured in 1640 nutrient solution containing 10% calf serum, with passage for 1 time every 2 days, and the cells in logarithmic growth phase were taken for experiments. After the A549, BGC-823, LOVO, MCF-7, SMMC-7721, HeLa and B16-F10 cells in logarithmic growth phase were subjected to 0.25% trypsin digestion, they were blown into a single cell suspension, and then the cell concentration was adjusted to about 1×10^5·mL^−1 using RPMI 1640 solution containing 10% calf serum. The cells were seeded in a 96-well culture plate at 100 μL per well, and cultured for 24 hours until the cells were attached. K562 cells were taken and centrifuged and diluted into 2×10^5·mL^−1 single cell suspension with RPMI 1640 solution containing 10% calf serum, and inoculated into a 96-well culture plate at 100 μL per well.
(§4) 100 μL of sample solution with different concentrations to be tested were added to the above 96-well plate, each concentration was added to 4 wells in parallel, and the cell control group was added with an equal volume of RPMI 1640 medium containing 10% calf serum to make a reaction volume of 200 μL. After incubating in an incubator at 37° C., 5% CO2 for 72 h, 10 μL of 5 mg·mL^−1 MTT solution was added to each well, and incubated at 37° C. for 4 h. The supernatant was carefully aspirated, 180 μL of DMSO was added to each well followed by shaking, and the absorbance (OD) value was measured at 570 nm on the microplate reader. The inhibition rate was calculated, and regression equation was established with the logarithmic value of the sample concentration and the inhibition rate (IR) to find the IC50 value of the compound against the cells to be tested. IR (%)=(1−OD value of the experimental group/OD value of the cell control group)×100%

[4] = tested on: BGC-823 (human gastric cancer cells); experiment: Inhibition of proliferation of tumor cell lines (MTT), BGC-823; conditions: Homo sapiens, BGC-823, 72 h, read-out: IC50 value of compound for inhibition of proliferation of tumor cell lines, BGC-823
Procedure: as §1, §2, §3, §4

[5] = tested on: LOVO (human colon cancer cells); experiment: Inhibition of proliferation of tumor cell lines (MTT), LOVO; conditions: Homo sapiens, 72 h, read-out: IC50 value of compound for inhibition of proliferation of tumor cell lines, LOVO
Procedure: as §1, §2, §3, §4

[6] = tested on: K562 (human leukemia cells); experiment: Inhibition of proliferation of tumor cell lines (MTT), K562; conditions: Homo sapiens, K562, 72 h, read-out: IC50 value of compound for inhibition of proliferation of tumor cell lines, K562
Procedure: as §1, §2, §3, §4

[7] = tested on: SMMC-7721 (human liver cancer cells); experiment: Inhibition of proliferation of tumor cell lines (MTT), SMMC-7721; conditions: Homo sapiens, SMMC-7721, 72 h, read-out: IC50 value of compound for inhibition of proliferation of tumor cell lines, SMMC-7721
Procedure: as §1, §2, §3, §4

[8] = tested on: MCF-7 (human breast cancer cells); experiment: Inhibition of proliferation of tumor cell lines (MTT), MCF-7; conditions: Homo sapiens, MCF7, MCF-7, 72 h, read-out: IC50 value of compound for inhibition of proliferation of tumor cell lines, MCF-7
Procedure: as §1, §2, §3, §4

[9] = tested on: HeLa (human cervical cancer cells); experiment: Inhibition of proliferation of tumor cell lines (MTT), HeLa; conditions: Homo sapiens, 72 h, read-out: IC50 value of compound for inhibition of proliferation of tumor cell lines, HeLA
Procedure: as §1, §2, §3, §4

[10] = tested on: mouse B16-F10 melanoma cells; experiment: Inhibition of proliferation of tumor cell lines (MTT), B16-F10; conditions: Mus musculus, B16-F10, 72 h, read-out: IC50 value of compound for inhibition of proliferation of tumor cell lines, B16-F10
Procedure: as §1, §3, §4

Work on `C/C=C(/C)C(=O)O[C@H]1C(C)=C[C@]23C(=O)[C@@H](C=C(CO)[C@@H](O)[C@]12O)[C@@H]1C(C)(C)[C@]1(O)C[C@H]3C` [Compound 3, 3-O-angeloyl-13-hydroxy-ingenol] yielded an activation at 3 µg/mL [1] of 65% and an activation at 1 µg/mL [2] of 23.8%.
Work on `CCCCCCCCCC(=O)O[C@@]12C[C@@H](C)[C@]34C=C(C)[C@H](O)[C@@]3(O)[C@H](O)C(COC(=O)C(C)C(C)C)=C[C@H](C4=O)[C@@H]1C2(C)C` (stereo partly drawn) [Compound 14, 20-O-(2,3-dimethylbutyryl)-13-O-decanoyl-ingenol] yielded an activation at 3 µg/mL [1] of 62.8% and an activation at 1 µg/mL [2] of 22.6%.
`CCCCCCCCCCCC(=O)O[C@@]12C[C@@H](C)[C@]34C=C(C)[C@H](OC(=O)CCCCC)[C@@]3(O)[C@H](O)C(CO)=C[C@H](C4=O)[C@@H]1C2(C)C` [3-O-hexanoyl-13-O-dodecanoyl-ingenol] showed an IC50 [3] of 18.5 µg/mL (≈ 28.7 µM), an IC50 [4] of 18.3 µg/mL (≈ 28.4 µM) and an IC50 [5] of 16.5 µg/mL (≈ 25.6 µM). It also gave an IC50 [6] of under 0.2 µg/mL, an IC50 [7] of 16.1 µg/mL (≈ 25 µM) and an IC50 [8] of 14 µg/mL (≈ 21.7 µM). The activation at 0.1 µg/mL ([1]; 0.1 μg/mL) was 173% and the activation at 0.1 µg/mL ([2]; 0.1 μg/mL) was 66%.
In the case of `C/C=C(/C)C(=O)OCC1=C[C@@H]2C(=O)[C@]3(C=C(C)[C@H](O)[C@@]3(O)[C@@H]1O)[C@H](C)C[C@]1(OC(=O)CCCCCCCCCCC)[C@H]2C1(C)C` [Compound 15b, 20-O-angeloyl-13-O-dodecanoyl-ingenol], the IC50 [3] was 10 µg/mL (≈ 15.9 µM), the IC50 [4] was 20.6 µg/mL (≈ 32.8 µM) and the IC50 [5] was 15.2 µg/mL (≈ 24.2 µM). For the same compound, the IC50 [6] was 0.001 µg/mL (≈ 0.00159 µM), the IC50 [7] was 13.1 µg/mL (≈ 20.8 µM) and the IC50 [8] was 23.3 µg/mL (≈ 37.1 µM). It also gave an IC50 [9] of 10.2 µg/mL (≈ 16.2 µM), an IC50 [10] of 9.09 µg/mL (≈ 14.5 µM) and an activation at 3 µg/mL [1] of 360%.
With `CCCCCCCCCCCC(=O)O[C@@]12C[C@@H](C)[C@]34C=C(C)[C@H](OC(=O)CCC)[C@@]3(O)[C@H](O)C(CO)=C[C@H](C4=O)[C@@H]1C2(C)C` [Compound 11, 3-O-n-butanoyl-13-O-dodecanoyl-ingenol] the IC50 [3] was 14.3 µg/mL (≈ 23.2 µM), the IC50 [4] was 13.4 µg/mL (≈ 21.7 µM) and the IC50 [5] was 8.82 µg/mL (≈ 14.3 µM). For the same compound, the IC50 [6] was 0.1 µg/mL (≈ 0.162 µM), the IC50 [7] was 19.1 µg/mL (≈ 31 µM) and the IC50 [8] was 18.5 µg/mL (≈ 30 µM). The IC50 [9] was 20.3 µg/mL (≈ 32.9 µM), the IC50 [10] was 26.2 µg/mL (≈ 42.5 µM) and the activation at 3 µg/mL [1] was 33.5%.
For `CCCCCCCCCCCC(=O)O[C@@]12C[C@@H](C)[C@]34C=C(C)[C@H](O)[C@@]3(O)[C@@H]3OC(C)(C)OCC3=C[C@H](C4=O)[C@@H]1C2(C)C` [Compound 2b, 13-O-dodecanoyl-ingenol 5,20-acetonide], the IC50 [3] was 15 µg/mL (≈ 25.6 µM), the IC50 [4] was 17.8 µg/mL (≈ 30.3 µM) and the IC50 [5] was 23 µg/mL (≈ 39.2 µM). The IC50 [6] was 0.85 µg/mL (≈ 1.45 µM), the IC50 [7] was 15.2 µg/mL (≈ 25.9 µM) and the IC50 [8] was 13.7 µg/mL (≈ 23.3 µM).
With `CCCCC/C=C/C=C/C(=O)O[C@@]12C[C@@H](C)[C@]34C=C(C)[C@H](O)[C@@]3(O)[C@H](O)C(CO)=C[C@H](C4=O)[C@@H]1C2(C)C` [Compound 1b, 13-O-(2′E,4′E-decadienoyl)-ingenol] the IC50 [3] was 12.8 µg/mL (≈ 24.9 µM), the IC50 [4] was 10.6 µg/mL (≈ 20.6 µM) and the IC50 [5] was 12.9 µg/mL (≈ 25.1 µM). For the same compound, the IC50 [6] was 8.97 µg/mL (≈ 17.4 µM), the IC50 [7] was 8.01 µg/mL (≈ 15.6 µM) and the IC50 [8] was 11.8 µg/mL (≈ 22.9 µM).

Source: US11753363B2, “13-oxidized ingenol derivative and use thereof” (Tianjin Pharmaceutical Da Ren Tang Group Corp., Ltd. …, priority 2017, dated 2023)
